Where two headings read alike, the source gives them in different places.
Tests used:
[1] = tested on: MV-4-11 AML cells; experiment: MV-4-11 cell proliferation assay (CellTiter-Glo); assay type: cell-based, human; conditions: 96 h
Description: A study was carried out to investigate the anticancer activity of compound 106 in a FLT-3 mutated (AML) cell line in vitro. The antiproliferative effects of compound 106 were determined in a cell proliferation assay using MV-4-11 AML cells. […] Luminescence was read on the EnVision 2102 Multilabel Counter (Perkin-Elmer/Wallac, Waltham, Mass.). The software, Graphpad Prism (ver. 4, San Diego, Calif.) was used for determination of IC50 values. The raw value for the untreated control represents an average from 4 wells.

[2] = tested on: Cell lines which carried a B-RAF V600E mutation; experiment: Cell growth inhibition in solid cancer cell lines (CellTiter-Glo or methylene blue); assay type: cell-based; conditions: 96 hours, B-RAF V600E mutated cell lines very sensitive
Description: Compounds 091 and 106, were extensively tested in solid cancer cell lines (shown in FIG. 3 for 18 cell lines for compound 091 and 20 cell lines for compound 106). […] Cell growth was assessed using a CellTiter-Glo® Luminescent Cell Viability Assay (Promega) or a methylene blue assay.

[3] = tested on: human hematologic cancer cell lines; experiment: Antiproliferative effects in hematologic cancer cell lines (MTT assay); assay type: cell-based; conditions: cell lines derived from leukemia, or B-cells such non-Hodgkin's lymphoma, 96 h
Description: A study was carried out to investigate anticancer activity of compounds 091 and 106 in a panel of human hematologic cancer cell lines in vitro. Antiproliferative effects of compounds 091 and 106 were evaluated in 7 human cancer cell lines representing several different cancer types of hematologic malignancy. […] Cell growth was assessed using the MTT assay.

[4] = tested on: Flt-3 receptor; experiment: Phosphorylation of Flt-3 receptor in MV-4-11 cells (immunoblot); assay type: cell-based, human; conditions: 24 h
Description: A study was carried out to investigate the ability of compound 106 to inhibit phosphorylation of Flt-3 receptor in a FLT3-mutated (AML) cell line in vitro. MV-4-11 human acute myeloid leukemia (AML) cells (Catalog #CRL-9591, ATCC, Rockville, Md.), which carry an activation mutation of Flt-3, were plated into a […] flasks and incubated for 1 day. Then, compound 106 at concentrations of 0.1 nmol/L-300 nmol/L (or culture medium) were added to each flask and cultured for 24 h. The control dish received cultured medium alone. Cells lysates were prepared using ice cold lysis buffer. In order to detect phospho-Flt-3 protein, MV-4-11 cell lysate proteins were subjected to SDS-PAGE under reducing conditions and immunoblotted with an antibody against phospho-Flt-3 antibody (Catalog #3464, Cell Signaling Technology, Danvers, Mass.). Western blots were probed with secondary IRDye antibodies (LI-COR, Inc., Lincoln, Nebr.). Blotted proteins were visualized using the Odyssey infrared imaging system (LI-COR, Inc., Lincoln, Nebr.). Anti-actin antibody (Catalog #sc-8432, Santa Cruz Biotechnologies, Inc., Santa Cruz, Calif.) was used as a loading control.

[5] = target: MEK1 (Homo sapiens, UniProt Q02750); experiment: Biochemical MEK1 assay (ELISA, ERK2-coated plate); conditions: 1 μmol/L ATP
Description: A biochemical MEK1 assay was carried out to investigate whether compounds of formula (I) or (II), e.g., compounds 029, 091, 106 and 114 are MEK1 inhibitors. Biochemical MEK1 inhibition of the compounds was assessed using an ELISA assay. All assays were performed in a 96 well format. A plate coated with ERK2, a substrate protein for MEK1 was used for biochemical MEK1 assay. In a final volume of 40 μL, MEK1 (25 ng) was incubated with 50 mmol/L HEPES, 20 mmol/L MgCl2, 4 mmol/L MnCl2, and 0.5 mmol/L Na3VO4 in the absence or presence of the test compounds. The reaction was initiated by the addition of 1 μmol/L ATP. After incubation for 40 minutes at 30° C., the reaction mixture was discarded and the plate was then washed 4 times with 0.05% Tween20/PBS. Each well was incubated with 100 μL of 1:4000 diluted phospho-ERK1/2 monoclonal antibody (Cell Signaling, MA) for 1.5 hours at room temperature. The antibody was then discarded and the plate was washed 6 times with 0.05% Tween20/PBS. Finally, 100 μL of 1:2000 diluted of HRP conjugated anti-mouse IgG antibody (Cell Signaling, MA) was added. After incubation for 90 minutes, this antibody was discarded and the plate was washed 8 times with 0.05% Tween20/PBS. Phosphorylated ERK2 was then visualized by peroxidase reaction, and read at 450 nm. FIG. 2A is a table depicting results from MEK1 assays.

[6] = tested on: PANC-1 pancreatic cancer cells; experiment: PANC-1 cell growth, alone or in combination with SN-38 (CellTiter-Glo)
Description: To determine whether compounds 091 or 106 in combination with SN-38 would enhance the anticancer activity of chemotherapy due to MEKK1 inhibition, PANC-1 human pancreatic cancer cells were examined.
Antiproliferative effects of SN-38 were evaluated in PANC-1 pancreatic cancer cells in combination with compound 091 or 106. Cultured human cancer cells were placed into 96-well plates and grown in the absence or continuous presence of 0.03-1000 nM SN-38 for 96 h with or without 1 μM of test compound. Cell growth was assessed using CellTiter-Glo® Luminescent Cell Viability Assay (Promega). IC50 values were determined as the concentration of a substance which inhibits cell growth by 50% compared to untreated cell populations.

[7] = tested on: Colo205 human colon cancer xenografts; experiment: In vivo antitumor activity in Colo205 xenografts; design: species or system mice; conditions: similar study with a different dosing schedule
Description: A study was carried out to investigate anticancer activity of compounds 091 and 106 in human Colo205 BRAF mutated colon cancer xenografts. The compounds were evaluated against subcutaneous-implanted Colo205 human colon cancer xenografts in female athymic mice.
(§1) The human colon cancer cell line, Colo205 which has B-RAF (V600E) mutation was transplanted subcutaneously into female nude mice. The experiment consisted of 6 mice per group on the first day of treatment. The compound was administered intravenously for two weekly rounds of five daily injections (q1d×5) with a two-day rest period between the rounds. Compound 091 was administered in a vehicle volume of 0.1 mL/10 g of body weight.
The general health of the mice was monitored daily. Tumor dimensions and body weights were recorded twice a week starting on the first day of treatment. Tumor weights were calculated using the equation (l×w^2)/2, where 1 and w refer to the larger and smaller dimensions collected at each measurement. When the mean tumor volume reached 140 mm^3, vehicle (cremophor:ethanol:5% glucose; 1:1:8) or the test compound (30 mg/kg) was administered to mice (6/group).

[8] = tested on: LOX human melanoma xenografts; experiment: In vivo antitumor activity in LOX xenografts; design: species or system mice
Description: A study was carried out to investigate anticancer activity of compounds 091 and 106 in human LOX BRAF mutated melanoma xenografts. The compounds were evaluated against subcutaneous-implanted LOX human melanoma xenografts in female athymic mice.
as §1, with “human melanoma” for “human colon cancer”, “line, LOX” for “line, Colo205”, “of 8” for “of 6”, “treatment. Compounds were independently” for “treatment. The compound was”, “rounds. Compounds were” for “rounds. Compound 091 was”
The general health of the mice was monitored daily. Tumor dimensions and body weights were recorded twice a week starting on the first day of treatment. Tumor weights were calculated using the equation (l×w^2)/2, where 1 and w refer to the larger and smaller dimensions collected at each measurement. When the mean tumor volume reached 128 mm^3, vehicle (cremophor:ethanol:5% glucose; 1:1:8) or one of the test compounds (10, 20, 30, or 40 mg/kg) was administered to mice (8/group).

[9] = tested on: Map/Erk kinase (MEK); conditions: cited from earlier work

MEK1, sequence (Q02750 whole entry): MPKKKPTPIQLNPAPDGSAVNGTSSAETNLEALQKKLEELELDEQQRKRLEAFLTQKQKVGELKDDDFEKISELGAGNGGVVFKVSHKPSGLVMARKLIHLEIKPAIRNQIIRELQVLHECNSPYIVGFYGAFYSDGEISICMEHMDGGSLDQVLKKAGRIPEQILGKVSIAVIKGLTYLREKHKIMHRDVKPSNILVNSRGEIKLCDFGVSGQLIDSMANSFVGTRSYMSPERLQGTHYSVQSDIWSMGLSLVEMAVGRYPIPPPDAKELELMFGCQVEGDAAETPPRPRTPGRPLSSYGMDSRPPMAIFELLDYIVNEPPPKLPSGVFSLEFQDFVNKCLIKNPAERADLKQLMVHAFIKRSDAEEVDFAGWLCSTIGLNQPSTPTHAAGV

**Q.** With `CCNc1cc(O)c2c(c1)/C=C/C[C@H](O)[C@H](O)C(=O)/C=C\[C@@H](C)[C@H](C)OC2=O` [Compound 106] as the compound, how does the “IC50, antiproliferative activity” value [1] read?
**A.** Its value is “low-nmol/L”.

**Q.** What about the “cell growth inhibition, concentration range of sensitivity” value [2] of the same compound?
**A.** The value was “low-nM or sub-μM”.

**Q.** What about the “sensitivity of cell growth” value [3] of the same compound?
**A.** Its value is “sensitive”.

**Q.** And the “constitutive phosphorylation of Flt-3 receptor” value ([4]; 10 nmol/L)?
**A.** Its value is “completely inhibited”.

**Q.** What about the “protein level of phospho-Flt-3” value ([4]; 0.1-300 nmol/L, concentration dependent) of the same compound?
**A.** Its value is “decreased”.

**Q.** What about the MEK1 inhibitory activity [5] of the same compound?
**A.** The MEK1 inhibitory activity was “low nM activity”.

**Q.** And the “effect on PANC-1 cancer cell growth, compound alone” value ([6]; 1 μM alone, separate experiments (data not shown))?
**A.** Its value is “did not affect”.

**Q.** And the “tumor regression from the first day of treatment” value [7]?
**A.** The value was 70%.

**Q.** And the “mice tumor free at the end of study” value ([8]; 10 mg/kg)?
**A.** Its value is 5 out of 8.

**Q.** What about the “mice tumor free at the end of study” value ([8]; 20 mg/kg) of the same compound?
**A.** The value was 8 out of 8.

**Q.** And the “mice tumor free at the end of study” value ([8]; 40 mg/kg)?
**A.** The value was 8 out of 8.

**Q.** What about the anticancer activity ([8]; three dosages, 10, 20, and 40 mg/kg/dose) of the same compound?
**A.** Its anticancer activity is “statistically significant anticancer activity”.

**Q.** Which “inhibition of MEK” value [9] does the source give for `COc1cc(O)c2c(c1)/C=C/C[C@H](O)[C@H](O)C(=O)/C=C\C[C@H](C)OC2=O` [Compound F152] here?
**A.** The value was “inhibit”.

**Q.** Which results are given for `CCc1c2c(nc3ccc(O)cc13)-c1cc3c(c(=O)n1C2)COC(=O)[C@]3(O)CC` [SN-38, reference compound]?
**A.** IC50 ([6]; read-out: IC50 for cell growth inhibition in combination setting, SN-38 with 1 μM of compound 091 or compound 106, 96 h): 16.2 nM; IC50 ([6]; read-out: IC50 for cell growth inhibition, SN-38 alone, 96 h): 82.5 nM

— patent US8937056B2, “Multikinase inhibitors for use in the treatment of cancer” (Eisai R&D Management Co., Ltd., priority 2007, dated 2015)
